Assay results: the supplement of paper PMC11451515

System: NOMO1
Assay: cell viability relative to DMSO control; higher = less cytotoxic
Details: 48 h
Summary of the method: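 Three leukemia lines were tested: NOMO1 and SEM at 500 cells/well and P12-Ichikawa at 1000 cells/well. Each was adapted for at least four passages in each medium and seeded in 5 μl in 1536-well plates, and library compounds in DMSO were pin-dosed from 47 μM to 0.79 nM in 11 threefold steps. After 48 h at 37°C, CellTiter-Glo One luminescence was read. Viability is a percentage relative to DMSO wells on each plate, with cell-free wells as background.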

[1] = HPLM + 10% dialyzed FBS, 0.000781 µM
[2] = HPLM + 10% dialyzed FBS, 0.00234 µM
[3] = HPLM + 10% dialyzed FBS, 0.00702 µM
[4] = HPLM + 10% dialyzed FBS, 0.0211 µM
[5] = HPLM + 10% dialyzed FBS, 0.0632 µM
[6] = HPLM + 10% dialyzed FBS, 0.19 µM
[7] = HPLM + 10% dialyzed FBS, 0.569 µM
[8] = HPLM + 10% dialyzed FBS, 1.71 µM
[9] = HPLM + 10% dialyzed FBS, 5.12 µM
[10] = HPLM + 10% dialyzed FBS, 15.4 µM
[11] = HPLM + 10% dialyzed FBS, 46.1 µM
[12] = RPMI 5 mM glucose + 10% FBS, 0.000781 µM
[13] = RPMI 5 mM glucose + 10% FBS, 0.00234 µM
[14] = RPMI 5 mM glucose + 10% FBS, 0.00702 µM
[15] = RPMI 5 mM glucose + 10% FBS, 0.0211 µM
[16] = RPMI 5 mM glucose + 10% FBS, 0.0632 µM
[17] = RPMI 5 mM glucose + 10% FBS, 0.19 µM
[18] = RPMI 5 mM glucose + 10% FBS, 0.569 µM
[19] = RPMI 5 mM glucose + 10% FBS, 1.71 µM
[20] = RPMI 5 mM glucose + 10% FBS, 5.12 µM
[21] = RPMI 5 mM glucose + 10% FBS, 15.4 µM
[22] = RPMI 5 mM glucose + 10% FBS, 46.1 µM
[23] = RPMI 5 mM glucose + 10% dialyzed FBS, 0.000781 µM
[24] = RPMI 5 mM glucose + 10% dialyzed FBS, 0.00234 µM
[25] = RPMI 5 mM glucose + 10% dialyzed FBS, 0.00702 µM
[26] = RPMI 5 mM glucose + 10% dialyzed FBS, 0.0211 µM
[27] = RPMI 5 mM glucose + 10% dialyzed FBS, 0.0632 µM
[28] = RPMI 5 mM glucose + 10% dialyzed FBS, 0.19 µM
[29] = RPMI 5 mM glucose + 10% dialyzed FBS, 0.569 µM
[30] = RPMI 5 mM glucose + 10% dialyzed FBS, 1.71 µM
[31] = RPMI 5 mM glucose + 10% dialyzed FBS, 5.12 µM
[32] = RPMI 5 mM glucose + 10% dialyzed FBS, 15.4 µM
[33] = RPMI 5 mM glucose + 10% dialyzed FBS, 46.1 µM

SMILES	cell viability [1] [%]	cell viability [2] [%]	cell viability [3] [%]	cell viability [4] [%]	cell viability [5] [%]	cell viability [6] [%]	cell viability [7] [%]	cell viability [8] [%]	cell viability [9] [%]	cell viability [10] [%]	cell viability [11] [%]	cell viability [12] [%]	cell viability [13] [%]	cell viability [14] [%]	cell viability [15] [%]	cell viability [16] [%]	cell viability [17] [%]	cell viability [18] [%]	cell viability [19] [%]	cell viability [20] [%]	cell viability [21] [%]	cell viability [22] [%]	cell viability [23] [%]	cell viability [24] [%]	cell viability [25] [%]	cell viability [26] [%]	cell viability [27] [%]	cell viability [28] [%]	cell viability [29] [%]	cell viability [30] [%]	cell viability [31] [%]	cell viability [32] [%]	cell viability [33] [%]
CNC[C@H](O)c1ccc(O)c(O)c1	112	95.6	104	104	96.9	102	88.1	89.2	86.3	77.1	73	84.7	89.8	83	87.6	84.6	80.5	90.7	89.9	80	76.7	77.9	84.2	90.4	93.8	85.6	95.9	91.3	84.2	75.5	84.6	76.5	77.7
OC[C@H]1OCC(O1)[N@@]2C=CC(N)=NC2=O (stereo partly specified)	115	127	101	105	117	113	131	86.7	121	126	94.8	114	123	118	116	114	127	118	113	122	108	108	103	133	112	109	125	111	117	113	120	113	113
CC(C)C(=O)Oc1ccc(CO)cc1[C@H](CCN(C(C)C)C(C)C)c1ccccc1	99.1	104	85.7	87	85.6	91.8	93.3	88.9	78.9	81.1	71.7	85.2	78.8	88.8	93.3	82.5	76	80	83.4	85.2	79.1	78.4	78.3	79.6	86.4	78.9	73.8	79.2	73.5	80.8	77.4	82.5	79.1
N#Cc1c(NC(=O)c2cccc3ccccc23)sc2c1CCCC2												120	142	118	128	139	134	127	25.4	26.1	21.7	21											
COC1=C2OC(=O)\C=C/C2=CC3=C1OC=C3	117	116	120	116	116	123	107	118	109	101	116	108	115	115	117	121	113	96.5	104	108	105	97.3	104	109	115	117	114	113	113	108	104	101	107
CNC(=O)c1ccc(N2C(=S)N(c3ccc(C#N)c(C(F)(F)F)c3)C(=O)C23CCC3)cc1F	90.5	90.2	91.7	33.3	95.1	105	103	107	92.6	93.2	111	80.5	88.3	83.6	18.9	98.9	88	92	86.6	96	88.4	99.1	84.9	93.1	108	34.6	100	90.6	95.2	93.1	95.6	91.7	103
CC/1=C(/N2[C@H](SC1)[C@H](NC(=O)[C@H](N)\C3=C\C\C=C/C3)C2=O)C(O)=O	97.5	110	103	109	108	121	123	135	121	115	121	110	119	114	118	119	124	109	117	129	125	127	102	109	104	124	115	108	114	121	126	109	118
O=C(c1ccc(Nc2nccc(-c3cc4ccccc4s3)n2)cc1)N1CCC(N2CCCC2)CC1	122	132	125	125	124	114	105	95.3	104	41.8	1.51	113	126	107	110	106	119	118	101	96.2	91.3	2.67	122	129	115	114	124	106	120	121	95	80.2	2.88
C[N]1C=C(C2=C1C=CC=C2)\C3=C(\C(=O)NC3=O)C4=C5CC(CN)CC[N]5C6=C4C=CC=C6 (stereo unspecified)	94.9	118	115	101	109	120	115	110	113	90	37.4	88.5	104	94.1	97.8	102	100	93.5	95.8	96.8	81.3	44.1	92.8	100	106	114	105	111	105	100	104	88	63.4
O=c1[nH]c2ccccc2n1C1CCN(Cc2ccc(-c3nc4cc5nc[nH]c5cc4nc3-c3ccccc3)cc2)CC1	95.9	126	114	126	133	130	108	97	90.7	103	95.9	101	119	108	113	123	113	115	107	111	121	118	98.8	104	109	105	116	116	103	107	97.9	115	102
C[C@]12CCC(=O)C=C1CC[C@@H]1[C@@H]2CC[C@@]2(C)[C@H]1CC[C@]2(C)O	109	116	115	85.3	110	102	108	102	99.1	96.5	90.2	85.1	89.6	88.9	97.2	86	96.5	91.1	86.8	98.7	87.7	83.4	107	93.8	96.1	86.5	105	93.1	91.6	98.1	90.9	91.6	90.7
C/C=C1\C2C=C(C)CC1(N)c1ccc(=O)[nH]c1C2 (stereo unspecified)	107	117	113	114	109	104	117	106	110	95.1	79.4	94.6	96.4	99.2	115	96.3	93.7	102	105	102	91	90.8	90.4	103	96.7	103	108	96.1	94.1	99.9	95	98.8	81
NC(=O)c1ccc(I)c([N+](=O)[O-])c1	130	123	110	138	126	140	128	117	126	124	117	125	125	120	131	119	125	126	140	133	120	118	123	120	137	143	148	132	148	139	143	158	130
CC(C)C1=C(O)C=C(O)C(=C1)C/2=N/NC(=O)N2C3=CC4=C(C=C3)[N](C)C=C4	134	116	123	130	118	29.5	23.4	23.2	20.7	21	15.8	106	101	107	112	105	19.6	16.3	15.3	16.8	16.3	13.3	120	117	130	118	95.9	32.6	22.3	19.6	20	16.9	17.6
CCn1c(-c2nonc2N)nc2cnc(Oc3cccc(NC(=O)c4ccc(OCCN5CCOCC5)cc4)c3)cc21	90.6	123	105	117	117	104	115	110	94.6	95.3	83.2	92.8	98.6	111	109	110	95.8	87.4	93.8	82.4	74.1	64	88.9	107	110	102	115	103	89.9	87.6	79.1	71.2	74.4
C[C@@H]\1CC(=O)N\N=C1C2=CC=C(NN=C(C#N)C#N)C=C2	90.8	89.5	107	95.5	99.9	90.2	102	87.6	88.5	86.8	4.87	93.9	87.6	92.6	90.6	87.9	96.7	85.7	97.5	89.2	80	7.6	85.3	94.7	93.4	90.7	95.3	92.6	96.3	89	87.1	83.2	9.26
